Data on two molecules can be found in patent US8017791B2, “Tri-substituted 2-benzhydryl-5-benzylamino-tetrahydro-pyran-4-ol and 6-benzhydryl-4-benzylamino-tetrahydro-pyran-3-ol analogues, and novel, 3,6-disubstituted pyran derivatives” (Wayne State University, priority 2003, dated 2011).

Where two headings read alike, the source gives them in different places.

Experiment [1] concerns the target T1, DAT (Rattus norvegicus, UniProt P23977).
T1 construct: rat striatum was the source for DAT, and cerebral cortex for SERT and NET; from tissue; P2 synaptosomal fraction for uptake
The following applies: Table 2; values marked b: See reference # 22; read-out: DAT binding, IC50, [3H]Win 35,428; cited from earlier work.

Experiment [2] concerns the target T1, DAT. The experiment can be described thus: Inhibition of [3H]DA uptake by DAT into rat striatal synaptosomes. In kind it is biochemical.
Experiment [3] deals with NET (Rattus norvegicus, UniProt Q9WTR4). Nature of the experiment: Inhibition of [3H]nisoxetine binding to NET. The following applies: Table 2; average ± SEM; read-out: NET binding, IC50 [3H]nisoxetine. How it is done:
(§1) Biology. […] Briefly, rat striatum was the source for DAT, and cerebral cortex for SERT and NET. […] Test compounds were dissolved in dimethyl sulfoxide (DMSO) and diluted out in 10% (v/v) DMSO. […] At least five triplicate concentrations of each test compound were studied, spaced evenly around the IC50 value. For DAT uptake assays, uptake of 50 nM [^3H]DA into rat striatal synaptosomes was measured exactly as described by us previously. Briefly, rat striatal P2 membrane fractions were incubated with test compounds for 8 min followed by the additional presence of [^3H]DA for 4 min at 25?. […] Construction of inhibition curves and dissolvement of test compounds were as described above.

The subject of experiment [4] is NET. Nature of the experiment: Inhibition of [3H]nisoxetine binding to NET. On the set-up: species or system rat. The note with it: Table 3; selectivity ratio of IC50 values. How it is done: as §1
Experiment [5] deals with T2, SERT (Rattus norvegicus, UniProt P31652).
T2 construct: rat striatum was the source for DAT, and cerebral cortex for SERT and NET; from tissue; host or cells: rat cerebral cortex
The experiment can be described thus: Inhibition of [3H]citalopram binding to SERT. How it is done: as §1

The target of experiment [6] is T3, NET (Rattus norvegicus, UniProt Q63380).
T3 construct: from tissue
Nature of the experiment: NET uptake inhibition, [3H]NE. It counts as biochemical. The note with it: in vitro data, Table 4.

In the next experiment the target is T4, NET (Rattus norvegicus).
T4 construct: from tissue
The experiment can be described thus: NET uptake inhibition, [3H]NE. It counts as biochemical. The note with it: Table 4; rat brain.

In experiment [7] the target is T1, DAT. The experiment can be described thus: Inhibition of [3H]WIN 35,428 binding to DAT.
Experiment [8] concerns the target T2, SERT. Nature of the experiment: SERT uptake inhibition, [3H]5-HT. It counts as biochemical.

The term IC50 denotes the concentration that gives 50% inhibition.

T2 sequence (P31652 whole entry): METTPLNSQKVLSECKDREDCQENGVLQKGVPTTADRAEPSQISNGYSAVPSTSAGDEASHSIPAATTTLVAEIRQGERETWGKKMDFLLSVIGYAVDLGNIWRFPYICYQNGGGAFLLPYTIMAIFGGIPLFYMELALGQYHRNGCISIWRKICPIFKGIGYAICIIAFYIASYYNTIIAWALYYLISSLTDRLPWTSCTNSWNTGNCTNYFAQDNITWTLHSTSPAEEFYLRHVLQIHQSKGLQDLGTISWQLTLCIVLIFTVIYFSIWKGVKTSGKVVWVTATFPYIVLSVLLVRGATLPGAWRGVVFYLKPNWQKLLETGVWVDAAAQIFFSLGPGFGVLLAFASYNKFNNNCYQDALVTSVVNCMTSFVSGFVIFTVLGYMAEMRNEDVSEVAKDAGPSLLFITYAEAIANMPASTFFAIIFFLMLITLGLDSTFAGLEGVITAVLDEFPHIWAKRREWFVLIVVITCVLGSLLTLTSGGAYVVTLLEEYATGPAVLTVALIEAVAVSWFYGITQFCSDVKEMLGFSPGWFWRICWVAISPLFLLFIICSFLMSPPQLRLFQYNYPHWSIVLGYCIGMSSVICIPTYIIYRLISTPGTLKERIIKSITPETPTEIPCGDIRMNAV
T1 sequence (P23977 whole entry): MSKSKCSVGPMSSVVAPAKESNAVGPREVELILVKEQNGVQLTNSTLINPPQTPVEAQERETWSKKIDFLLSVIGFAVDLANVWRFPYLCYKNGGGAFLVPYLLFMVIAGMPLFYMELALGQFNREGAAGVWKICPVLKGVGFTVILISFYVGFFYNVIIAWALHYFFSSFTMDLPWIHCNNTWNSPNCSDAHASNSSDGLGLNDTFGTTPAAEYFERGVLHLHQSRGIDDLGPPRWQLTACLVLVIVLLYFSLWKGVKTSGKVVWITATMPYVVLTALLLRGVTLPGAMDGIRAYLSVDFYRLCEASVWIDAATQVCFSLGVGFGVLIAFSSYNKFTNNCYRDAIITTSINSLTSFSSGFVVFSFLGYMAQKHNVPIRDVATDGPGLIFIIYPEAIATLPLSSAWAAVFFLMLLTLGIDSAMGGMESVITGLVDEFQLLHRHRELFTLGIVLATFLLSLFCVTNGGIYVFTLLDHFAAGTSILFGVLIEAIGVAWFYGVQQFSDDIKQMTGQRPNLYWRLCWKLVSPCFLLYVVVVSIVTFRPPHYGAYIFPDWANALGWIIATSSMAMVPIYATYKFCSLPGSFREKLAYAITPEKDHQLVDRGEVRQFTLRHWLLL
T3 sequence (Q63380 1-617): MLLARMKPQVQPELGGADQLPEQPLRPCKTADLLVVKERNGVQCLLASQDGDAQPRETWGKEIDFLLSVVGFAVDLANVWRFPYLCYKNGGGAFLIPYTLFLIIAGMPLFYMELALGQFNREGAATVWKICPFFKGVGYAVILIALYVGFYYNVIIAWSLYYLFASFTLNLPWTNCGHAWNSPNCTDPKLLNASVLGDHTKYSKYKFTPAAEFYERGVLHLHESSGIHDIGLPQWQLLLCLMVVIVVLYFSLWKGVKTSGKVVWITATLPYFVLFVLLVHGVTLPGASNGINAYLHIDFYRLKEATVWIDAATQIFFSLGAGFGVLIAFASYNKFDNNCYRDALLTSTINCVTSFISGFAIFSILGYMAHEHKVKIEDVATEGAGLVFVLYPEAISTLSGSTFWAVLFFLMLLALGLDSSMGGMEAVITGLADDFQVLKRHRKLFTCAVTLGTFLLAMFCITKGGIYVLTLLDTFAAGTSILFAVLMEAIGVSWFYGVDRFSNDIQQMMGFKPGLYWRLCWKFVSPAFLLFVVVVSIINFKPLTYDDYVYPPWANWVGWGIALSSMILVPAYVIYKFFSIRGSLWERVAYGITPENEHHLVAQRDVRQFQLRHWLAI
T4 sequence (Q63380 1-617): as above

Regarding `Fc1ccc(CN[C@H]2CC[C@@H](C(c3ccccc3)c3ccccc3)OC2)cc1` (relative stereo) [Compound 16b, Cis-(6-benzhydryl-tetrahydropyran-3-yl)-(4-fluoro-benzyl)-amine], the 50% inhibitory concentration (IC50) was 163 nM at DAT [1]; 146 ± 36 nM at DAT [2] (Table 2, average ± SEM, read-out: DAT uptake, IC50 [3H]DA); 232 ± 46 nM at NET [3]; 1860 nM at SERT [5] (Table 2, average ± SEM, read-out: SERT binding, IC50 [3H]citalopram). The “[3H]DA uptake/DAT binding” value at DAT [2] (Table 3, ratio of IC50 values) came to 0.96. In addition, in the experiment with NET [4], the “NET binding/DAT binding” value came to 1.4. The “SERT binding/DAT binding” value at SERT [5] (Table 3, selectivity ratio of IC50 values) is listed as 11.4.

Consider `O[C@@H]1C[C@@H](C(c2ccccc2)c2ccccc2)OC[C@H]1NCc1ccc(F)cc1` [(−)-29b, (2S,4R,5R)-2-benzhydryl-5-(4-fluoro-benzylamino)-tetrahydro-pyran-4-ol], for which the IC50 against DAT [2] came to 169 ± 20 nM; against NET (Rattus norvegicus) it was 13.3 ± 1 nM; at DAT [7], 308 ± 25 nM; against SERT [8] it was 676 ± 33 nM. Also, the entries for the “selectivity for the NET (NRI profile), in words” value on NET [6] and at NET [6] (listed as (−)29b) were “selective blockers for NET” and “more selective for the NET”, respectively.
